US4645747A, “Specific binding assay technique” (priority 1979, dated 1987)
Like-named read-outs stand apart in the source and are kept apart here.

Columns and labels:
[1] = cited from earlier work
[2] = format: physicochemical; details: for % Estriol extracted, Tracer only: ^125I estriol, no unlabelled estriol; for % Estriol extracted, with 250 ng/ml: with 250 ng/ml unlabelled estriol
Source text: The choice of the preferred solvent for each system is made by carrying out a simple experiment in each case as illustrated hereinafter.

[3] = tested on: anti-THC antiserum, R-41Va; experiment: THC RIA with solvent extraction or charcoal separation (Example 7); format: binding; details: for % B/Bo Charcoal: dextran-coated charcoal
Description: An assay using the solvent extraction method was developed for tetrahydrocannabinol (THC) metabolites using a (^3 H)-THC tracer (Amersham). All assay components were prepared in tris-maleate buffer (pH 7.3) containing 0.2% PVP and 0.1% Triton X450 (trademark of Rohm and Haas). […]. The solvent, 500 μl, was added to the assay tubes and vortexed for 20-30 seconds. […]. The following Table 5 summarizes the results, expressed as % B/Bo for the three experiments.

[4] = tested on: phenobarbitone antiserum R-66X; experiment: Phenobarbitone RIA with solvent extraction (Example 6); format: binding; details: mean of duplicates; for % B/Bo MIBK: methyl isobutyl ketone; for % B/Bo TBME: tert-butyl methyl ether
Description: The components used for a phenobarbitone RIA were a (^3 H) phenobarbitone tracer (N.E.N), a phenobarbitone antiserum R-66X (Technion) and tris-maleate assay buffer (pH 7.3, 0.078M Tris, 0.035M maleic acid) containing 0.1% PVP (polyvinyl pyrrolidone).
The tracrer, 100 μl (approx. 10 nono Ci/tube) was added to test-tubes followed by the addition of 50 μl phenobarbitone standards and 100 μl of diluted antiserum. All test-tubes were incubated overnight at 4° C. After incubation, 0.5 ml of solvent (tert-butyl methyl ether, TBME in one experiment and, MIBK in a parallel experiment) were added to each assay tube and vortexed for 20-30 seconds. After phase separation on standing, the aqueous phase was transferred to scintillation vials for radioactivity determination. The following Table 4, summarizes mean values (of duplicates) expressed as % B/Bo.

[5] = tested on: RIA kit for estradiol; experiment: Estradiol 17β (^3H) RIA, kit protocol vs solvent extraction (Example 5); format: binding; details: for % B/Bo Expt. A (kit): kit protocol; for % B/Bo Expt. B (solvent extn.): solvent extraction
Description: A commercially available (^3 H) RIA kit for estradiol supplied by Isopac was tested by the solvent extraction method as follows:
All kit components were prepared according to kit directions. One experiment (A) was carried out exactly according to the kit protocol. A second, parallel experiment (B) was performed according to kit protocol up to, and including, the incubation step. […] After phase separation (about 10 minutes) the upper solvent phase, containing the free estradiol, was transferred to scintillation vials to which 5 ml of scintillation liquid (Instagel II, trademark of Packard) were added and the radioactivity determined.

For `ClC(Cl)(Cl)Cl` [Carbon tetrachloride, carbon tetrachloride], the “% solubility in water” value ([1]; in water) is given as 0.08%, the “% Estriol extracted, Tracer only” value [2] is given as 35-38% and the “% Estriol extracted, with 250 ng/ml” value [2] is given as 38-40%.

With `CCCCCc1cc(O)c2c(c1)OC(C)(C)[C@@H]1CCC(C)=C[C@@H]21` [THC, tetrahydrocannabinol] the “% B/Bo MIBK” value ([3]; standard 1 ng/ml) was 98%, the “% B/Bo Charcoal” value ([3]; standard 1 ng/ml) was 98% and the “% B/Bo t-amyl alcohol” value ([3]; standard 1 ng/ml) was 90%. The “% B/Bo MIBK” value ([3]; standard 2 ng/ml) was 84%, the “% B/Bo t-amyl alcohol” value ([3]; standard 2 ng/ml) was 86% and the “% B/Bo MIBK” value ([3]; standard 4 ng/ml) was 68%. For the same molecule, the “% B/Bo Charcoal” value ([3]; standard 4 ng/ml) was 86%, the “% B/Bo t-amyl alcohol” value ([3]; standard 4 ng/ml) was 77% and the “% B/Bo MIBK” value ([3]; standard 10 ng/ml) was 30%. For the same molecule, the “% B/Bo Charcoal” value ([3]; standard 10 ng/ml) was 55%, the “% B/Bo t-amyl alcohol” value ([3]; standard 10 ng/ml) was 36% and the “% B/Bo MIBK” value ([3]; standard 20 ng/ml) was 18%. For the same molecule, the “% B/Bo Charcoal” value ([3]; standard 20 ng/ml) was 32%, the “% B/Bo t-amyl alcohol” value ([3]; standard 20 ng/ml) was 15% and the “% B/Bo MIBK” value ([3]; standard 40 ng/ml) was 8%. For the same molecule, the “% B/Bo Charcoal” value ([3]; standard 40 ng/ml) was 21% and the “% B/Bo t-amyl alcohol” value ([3]; standard 40 ng/ml) was 6%.

In the case of `CCC1(c2ccccc2)C(=O)NC(=O)NC1=O` [Phenobarbitone, phenobarbitone], the “% B/Bo MIBK” value ([4]; standard 5 ng/ml) is reported as 73.0%, the “% B/Bo TBME” value ([4]; standard 5 ng/ml) is reported as 96.5% and the “% B/Bo MIBK” value ([4]; standard 10 ng/ml) is reported as 63.0%. The “% B/Bo TBME” value ([4]; standard 10 ng/ml) was 79.0%, the “% B/Bo MIBK” value ([4]; standard 25 ng/ml) was 45.0% and the “% B/Bo TBME” value ([4]; standard 25 ng/ml) was 52.0%. The “% B/Bo MIBK” value ([4]; standard 50 ng/ml) was 30.0%, the “% B/Bo TBME” value ([4]; standard 50 ng/ml) was 30.0% and the “% B/Bo MIBK” value ([4]; standard 100 ng/ml) was 19.0%. The “% B/Bo TBME” value ([4]; standard 100 ng/ml) was 23.0%.

For `ClCc1ccccc1` [Benzyl chloride], the “% solubility in water” value ([1]; in water) is listed as 0.05%, the “% Estriol extracted, Tracer only” value [2] is listed as 78-80% and the “% Estriol extracted, with 250 ng/ml” value [2] is listed as 76-78%.

In the case of `ClCCl` [Dichloromethane, dichloromethane], the “% solubility in water” value ([1]; water) is given as 2% and the “% Estriol extracted, Tracer only” value [2] is given as 45-47%.

In the case of `CC(=O)CC(C)C` [Methyl isobutyl ketone, methyl isobutyl ketone], the “% solubility in water” value ([1]; in water) is listed as 1.9%, the “% Estriol extracted, Tracer only” value [2] is listed as 91-94% and the “% Estriol extracted, with 250 ng/ml” value [2] is listed as 90-94%.

For `CCOC(C)=O` [Ethyl acetate, ethyl acetate], the “% solubility in water” value ([1]; in water) is listed as 3.3%, the “% Estriol extracted, Tracer only” value [2] is listed as 90-94% and the “% Estriol extracted, with 250 ng/ml” value [2] is listed as 90-92%.

In the case of `CCN(CC)CC` [Triethyl amine], the “% Estriol extracted, Tracer only” value [2] is reported as 86-91% and the “% Estriol extracted, with 250 ng/ml” value [2] is reported as 86-90%.

In the case of `C[C@]12CC[C@@H]3c4ccc(O)cc4CC[C@H]3[C@@H]1CC[C@@H]2O` [Estradiol, Estradiol 17β], the “% B/Bo Expt. A (kit)” value ([5]; standard 25.0 pg/ml) is reported as 89.0%, the “% B/Bo Expt. B (solvent extn.)” value ([5]; standard 25.0 pg/ml) is reported as 89.0% and the “% B/Bo Expt. A (kit)” value ([5]; standard 50.0 pg/ml) is reported as 85.0%. For the same molecule, the “% B/Bo Expt. B (solvent extn.)” value ([5]; standard 50.0 pg/ml) was 76.0%, the “% B/Bo Expt. A (kit)” value ([5]; standard 100.0 pg/ml) was 59.0% and the “% B/Bo Expt. B (solvent extn.)” value ([5]; standard 100.0 pg/ml) was 40.0%. For the same molecule, the “% B/Bo Expt. A (kit)” value ([5]; standard 200.0 pg/ml) was 40.0%, the “% B/Bo Expt. B (solvent extn.)” value ([5]; standard 200.0 pg/ml) was 23.0% and the “% B/Bo Expt. A (kit)” value ([5]; standard 400.0 pg/ml) was 21.0%. For the same molecule, the “% B/Bo Expt. B (solvent extn.)” value ([5]; standard 400.0 pg/ml) was 14.0%.
